In PubChem BioAssay (NCI) one finds TGI data, which are given here for four compounds.

Among the test systems are XF 498 CNS; SNB-78 CNS; DLD-1 colon; LXFL 529 NSCLC; KM20L2 colon; M19-MEL melanoma; RXF-631 renal.
Experiment in all cases: growth of human tumour cells (NCI), 48 h

Each structure is given as a SMILES string.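 Where inhibition never reached the appropriate level, the endpoint shown equals the highest concentration tested. Otherwise, values were interpolated linearly from a five-concentration, 48-hour dose response in 96-well plates. TGI: total growth inhibition.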

As for `CSc1nc(NC2OCC(OC(C)=O)C(OC(C)=O)C2OC(C)=O)c(N=C(C)C(C)=O)c(=O)[nH]1` (stereo unspecified), the TGI in the experiment with XF 498 CNS, with SNB-78 CNS, with DLD-1 colon and in the experiment with LXFL 529 NSCLC was > 100 µM in each case.
In the case of `Cc1nc2c(n1C)C(=O)c1nc(CBr)[nH]c(=O)c1C2=O`, the TGI with KM20L2 colon, in the experiment with DLD-1 colon, with LXFL 529 NSCLC and in the experiment with M19-MEL melanoma was > 100 µM throughout.
With `CCCCCCCCCCCCCCCc1ccc(OCC(O)CO)cc1` (stereo unspecified), the TGI in the experiment on XF 498 CNS is 39.3 µM; with RXF-631 renal, 71.6 µM; in the experiment on SNB-78 CNS, 99.3 µM; with KM20L2 colon, 94.4 µM; in the experiment with DLD-1 colon, > 100 µM; with LXFL 529 NSCLC it was 68 µM. For the same compound, the TGI with M19-MEL melanoma worked out at 33.4 µM.
As to `Cc1ccc(NP(=O)(Oc2ccccc2)N(CCCl)CCCl)cc1` (stereo unspecified), the TGI in the experiment on RXF-631 renal, with SNB-78 CNS, in the experiment with KM20L2 colon, with DLD-1 colon, in the experiment with LXFL 529 NSCLC and in the experiment with M19-MEL melanoma was > 100 µM throughout.
